Structures are written as SMILES. The source made the active and inactive calls. The rule behind the calls is not given here. Square brackets hold non-standard residues; d marks the D form. Peptide text beside a SMILES is read from it. * marks the point of attachment. Benzoyl(4-tBu) = CC(C)(C)c1ccc(C(=O)*)cc1; Lys(Et2) = CCN(CC)CCCC[C@H](N)C(=O)O

The subject of assay [1] is Schistosoma mansoni. As to the kind of experiment: In vitro activity on S. mansoni schistosomula at 10 uM. It counts as functional, organism-based. Further details: test concentration 10 uM, temperature 37 degree C, time incubation 72 h. Particulars: Puerto Rican.
The test system of assay [2] is Schistosoma mansoni. The assay can be described thus: EC50 on S. mansoni schistosomula. It counts as functional, organism-based. To be noted: Puerto Rican.
The subject of assay [3] is Schistosoma mansoni. It counts as functional, Puerto Rican. Particulars: temperature 37 degree C; tested at 10 uM; Worm movement inhibition (compared to DMSO control)_lower value 0 %; Worm movement inhibition (compared to DMSO control)_upper value 100 %.
Assay [4] deals with Schistosoma mansoni. As to the kind of experiment: In vitro activity on S. mansoni schistosomula at 50 uM. Particulars: Puerto Rican. It counts as functional, organism-based. Set-up: test concentration 50 uM, temperature 37 degree C, time incubation 72 h.
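Throughout, for Worm movement inhibition: in vitro assay using adult worms.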

One may read the EC50 as the concentration giving half of the maximal effect. A low value points to a more potent agent. With `CC(/C=C/C(=O)NO)=C\[C@@H](C)C(=O)c1ccc(N(C)C)cc1` [TRICHOSTATIN], the In vitro activity entry with Schistosoma mansoni [1] and in the assay on Schistosoma mansoni [4] was “Active” throughout. Further, it took 558 nM to reach a half-maximal effect in the assay on Schistosoma mansoni [2] (EC50). The compound further registered a Worm movement inhibition with Schistosoma mansoni [3] of 8.13%.

As to `CC[C@H](C)[C@H](NC(=O)[C@H]([C@@H](C)CC)N(C)C(C)=O)C(=O)N[C@H](C(=O)N[C@@H](CC(C)C)C(=O)[C@@]1(C)CO1)[C@@H](C)O` [EPOXOMYCIN], the In vitro activity result in the assay with Schistosoma mansoni [1] and with Schistosoma mansoni [4] was “Active” in each case. This compound displayed an EC50 in the assay on Schistosoma mansoni [2] of 226 nM. The compound also had a Worm movement inhibition in the assay with Schistosoma mansoni [3] of 97.15%.

Regarding `Cc1n[nH]c2ccc(-c3cncc(OC[C@@H](N)Cc4ccccc4)c3)cc12`, the In vitro activity result with Schistosoma mansoni [1] and in the assay on Schistosoma mansoni [4] was “Active” in each case. The same compound had an EC50 in the assay with Schistosoma mansoni [2] of 2930 nM. Also, in the assay with Schistosoma mansoni [3], the Worm movement inhibition turned out to be 93.77%.

As to `Cc1cccc(-c2nc(Nc3ccncc3)c3ccccc3n2)n1`, the In vitro activity entry in the assay on Schistosoma mansoni [1] and with Schistosoma mansoni [4] was “Active” in each case. A half-maximal response with Schistosoma mansoni [2] (EC50) required 2620 nM. This compound also returned a Worm movement inhibition in the assay on Schistosoma mansoni [3] of 40.28%.

`C[C@@H]1C[C@H]2O[C@@H]2/C=C\C=C\C(=O)Cc2c(Cl)c(O)cc(O)c2C(=O)O1` [RADICICOL]: the In vitro activity entry in the assay on Schistosoma mansoni [1] and in the assay on Schistosoma mansoni [4] was “Active” in each case. Also, in the assay with Schistosoma mansoni [2], a half-maximal response (EC50) required 1830 nM. The Worm movement inhibition in the assay on Schistosoma mansoni [3] came to 82.43%.

For `O=C1Nc2cc(Br)ccc2/C1=C1/Nc2ccccc2/C1=N\O` [6BIO], the In vitro activity result in the assay with Schistosoma mansoni [1] and in the assay on Schistosoma mansoni [4] was “Active” throughout. The Worm movement inhibition with Schistosoma mansoni [3] is 95.74%.

Take `COc1cc(N2CCN(C)CC2)ccc1Nc1nccc(-c2cn(C)c3cnccc23)n1`: the In vitro activity entry in the assay on Schistosoma mansoni [1] and in the assay on Schistosoma mansoni [4] was “Active” throughout. Further, the EC50 in the assay with Schistosoma mansoni [2] was 3400 nM. In the assay with Schistosoma mansoni [3], this compound yielded a Worm movement inhibition of 93.2%.

For the compound `Cc1[nH]c(/C=C2\C(=O)Nc3ccc(S(=O)(=O)Cc4c(Cl)cccc4Cl)cc32)c(C)c1C(=O)N1CCC[C@@H]1CN1CCCC1` [PHA-665752], the In vitro activity result in the assay on Schistosoma mansoni [1] and in the assay with Schistosoma mansoni [4] was “Active” throughout. The EC50 in the assay on Schistosoma mansoni [2] stood at 4510 nM. This compound also displayed a Worm movement inhibition in the assay on Schistosoma mansoni [3] of 99.71%.

With `CNc1ncc2cc(-c3ccc(-c4cccc(C)n4)cc3Cl)c(=O)n(C[C@H]3OC[C@H](N)CO3)c2n1`, the In vitro activity entry in the assay with Schistosoma mansoni [1] and in the assay with Schistosoma mansoni [4] was “Active” each time. The compound also displayed an EC50 in the assay with Schistosoma mansoni [2] of 2840 nM. Also, the Worm movement inhibition in the assay on Schistosoma mansoni [3] is listed as 98.47%.

`COc1ccc(-c2nc(N3CCOCC3)c3sc(CN(C)c4ncc(C(=O)NO)cn4)cc3n2)cn1` [FIMEPINOSTAT]: the In vitro activity result in the assay on Schistosoma mansoni [1] and with Schistosoma mansoni [4] was “Active” in each case. The EC50 in the assay on Schistosoma mansoni [2] turned out to be 606 nM. The same compound had a Worm movement inhibition with Schistosoma mansoni [3] of 56.87%.

Take `OCCCNc1cc(-c2ccnc(Nc3cccc(Cl)c3)n2)ccn1`: the In vitro activity entry with Schistosoma mansoni [1] and with Schistosoma mansoni [4] was “Active” throughout. Further, in the assay on Schistosoma mansoni [2], a half-maximal effect (EC50) was put at 410 nM. The Worm movement inhibition with Schistosoma mansoni [3] is 98.94%.

Take `Cl.Cl.O=C(NCCCNc1nc(Nc2cccc(CN3CCOCC3)c2)ncc1C1CC1)C1CCC1`: the In vitro activity entry in the assay on Schistosoma mansoni [1] and with Schistosoma mansoni [4] was “Active” each time. In the assay on Schistosoma mansoni [2], this compound came in with an EC50 of 3130 nM. Moreover, in the assay with Schistosoma mansoni [3], the Worm movement inhibition is 97.58%.

As for `CC1(C)CC(=O)c2c(C(F)(F)F)nn(-c3ccc(C(N)=O)c(N[C@H]4CC[C@H](O)CC4)c3)c2C1` [SNX-2112], the In vitro activity result in the assay with Schistosoma mansoni [1] and in the assay with Schistosoma mansoni [4] was “Active” each time. In the assay with Schistosoma mansoni [2], this compound came in with an EC50 of 1940 nM. This compound showed a Worm movement inhibition in the assay with Schistosoma mansoni [3] of 25.47%.

With `COc1cc(N2CCC(N3CCN(C)CC3)CC2)ccc1Nc1ncc(Cl)c(Nc2ccccc2S(=O)(=O)C(C)C)n1` [TAE-684], the In vitro activity result in the assay with Schistosoma mansoni [1] and with Schistosoma mansoni [4] was “Active” in each case. The compound further had an EC50 in the assay with Schistosoma mansoni [2] of 2400 nM. The compound further had a Worm movement inhibition in the assay with Schistosoma mansoni [3] of 99.53%.

As for `CCN(CC)CCCC[C@H](NC(=O)[C@H](CC(C)C)NC(=O)[C@H](C)NC(=O)[C@H](Cc1ccccc1)NC(=O)c1ccc(C(C)(C)C)cc1)C(=O)N[C@@H](CO)C(=O)OC` ({Benzoyl(4-tBu)}-FAL[Lys(Et2)]S-OMe), the In vitro activity entry with Schistosoma mansoni [1] and in the assay on Schistosoma mansoni [4] was “inactive” throughout.

With `CCOC(=O)NCCCC(=O)NCCc1ccccc1`, the In vitro activity result in the assay on Schistosoma mansoni [1] and with Schistosoma mansoni [4] was “inactive” in each case.

On to `CCN(CC)Cc1ccc2cc(COC(=O)Nc3ccc(C(=O)NO)cc3)ccc2c1`, for which the In vitro activity entry in the assay on Schistosoma mansoni [1] and in the assay with Schistosoma mansoni [4] was “inactive” throughout.

Take `CSc1cccc(Nc2ncc3cc(-c4c(Cl)cccc4Cl)c(=O)n(C)c3n2)c1`: the In vitro activity result in the assay on Schistosoma mansoni [1] and with Schistosoma mansoni [4] was “inactive” throughout.

With `CC[C@@]1(O)C(=O)OCc2c1cc1n(c2=O)Cc2cc3ccccc3nc2-1`, in the assay on Schistosoma mansoni [1], the In vitro activity result is “inactive”. Moreover, in the assay on Schistosoma mansoni [4], the In vitro activity result was “Active”.

For the compound `O=C(O[C@H]1[C@@H]2C=CO[C@@H](O[C@@H]3O[C@H](CO)[C@@H](O)[C@H](O)[C@H]3O)[C@@H]2[C@@]2(CO)O[C@@H]12)c1ccc(O)cc1`, the In vitro activity entry in the assay with Schistosoma mansoni [1] and with Schistosoma mansoni [4] was “inactive” in each case.

`CCNC(=O)c1cc2c(-c3cc(OCCN4CCCC4)c(Cl)cc3Cl)nc(N)nc2s1`: the In vitro activity entry with Schistosoma mansoni [1] and in the assay on Schistosoma mansoni [4] was “Active” throughout. The same compound gave an EC50 in the assay with Schistosoma mansoni [2] of 547 nM. This compound displayed a Worm movement inhibition with Schistosoma mansoni [3] of 91.33%.

Turning to `CCNC(=O)c1noc(-c2cc(C(C)C)c(O)cc2O)c1-c1ccc(CN2CCOCC2)cc1` [LUMINESPIB], the In vitro activity result in the assay with Schistosoma mansoni [1] and with Schistosoma mansoni [4] was “Active” in each case. The same compound had a concentration for a half-maximal effect (EC50) with Schistosoma mansoni [2] of 194 nM. The same compound registered a Worm movement inhibition in the assay with Schistosoma mansoni [3] of 40.22%.
